Experimental data from ChEMBL document CHEMBL1201862, “PubChem BioAssay data set” (2004).
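Five concentrations, 48 hours, 96-well plates. GI50 is the concentration that inhibits growth by half.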 The source made the active and inactive calls. Cut-off read from the data, not from the text of the source: active = GI50 up to about 1.1 µM and inactive = higher.

Key:
Test in all cases: NCI tumour cell line growth inhibition, 48 h
A498 = test system: A498
A549 = test system: A549
ACHN = test system: ACHN
DU-145 = test system: DU-145
K562 = test system: K562
KM12 = test system: KM12
M14 = test system: M14
MDA-MB-231 = test system: MDA-MB-231
MDA-MB-435 = test system: MDA-MB-435
NCI-H522 = test system: NCI-H522
OVCAR-3 = test system: OVCAR-3
OVCAR-8 = test system: OVCAR-8
PC-3 = test system: PC-3
RXF 393 = test system: RXF 393
SK-MEL-2 = test system: SK-MEL-2
SR = test system: SR
SW-620 = test system: SW-620
UO-31 = test system: UO-31
OVCAR-4 = test system: OVCAR-4
Hs-578T = test system: Hs-578T

SMILES	GI50 (A498)	GI50 (A549)	GI50 (ACHN)	GI50 (DU-145)	GI50 (K562)	GI50 (KM12)	GI50 (M14)	GI50 (MDA-MB-231)	GI50 (MDA-MB-435)	GI50 (NCI-H522)	GI50 (OVCAR-3)	GI50 (OVCAR-8)	GI50 (PC-3)	GI50 (RXF 393)	GI50 (SK-MEL-2)	GI50 (SR)	GI50 (SW-620)	GI50 (UO-31)	GI50 (OVCAR-4)	GI50 (Hs-578T)
NC(=O)/N=C(\N)NC(=O)c1ccccc1	> 100 µM (inactive)	> 100 µM (inactive)	> 100 µM (inactive)	> 100 µM (inactive)	> 100 µM (inactive)	> 100 µM (inactive)	> 100 µM (inactive)	> 100 µM (inactive)	> 100 µM (inactive)	> 100 µM (inactive)	> 100 µM (inactive)	> 100 µM (inactive)	> 100 µM (inactive)	> 100 µM (inactive)	> 100 µM (inactive)	> 100 µM (inactive)	> 100 µM (inactive)	> 100 µM (inactive)	–	–
COc1cc2c(c(N)c1OC)C(=O)/C(=C/c1cc(C)c(O)c(C)c1)C2	7.13 µM (inactive)	< 0.01 µM (active)	–	< 0.01 µM (active)	< 0.01 µM (active)	< 0.01 µM (active)	< 0.01 µM (active)	0.0141 µM (active)	< 0.01 µM (active)	< 0.01 µM (active)	< 0.01 µM (active)	< 0.01 µM (active)	< 0.01 µM (active)	0.0323 µM (active)	–	< 0.01 µM (active)	< 0.01 µM (active)	–	7.91 µM (inactive)	–
CC1=NOC(=O)/C1=C/c1cccc2ccccc12	> 100 µM (inactive)	> 100 µM (inactive)	> 100 µM (inactive)	–	> 100 µM (inactive)	> 100 µM (inactive)	> 100 µM (inactive)	–	–	> 100 µM (inactive)	> 100 µM (inactive)	> 100 µM (inactive)	–	> 100 µM (inactive)	> 100 µM (inactive)	> 100 µM (inactive)	54 µM (inactive)	> 100 µM (inactive)	> 100 µM (inactive)	–
Cn1cnc([N+](=O)[O-])c1Sc1n[nH]c(-c2ccc(Cl)cc2)n1	22.4 µM (inactive)	25.3 µM (inactive)	18.7 µM (inactive)	–	13.7 µM (inactive)	18.5 µM (inactive)	15 µM (inactive)	–	–	11.7 µM (inactive)	18.1 µM (inactive)	16.3 µM (inactive)	–	13.3 µM (inactive)	13.6 µM (inactive)	13.1 µM (inactive)	21.7 µM (inactive)	19.1 µM (inactive)	18.3 µM (inactive)	–
O=C(CCN1CCCCC1)C(=Cc1ccccc1)C(=O)CCN1CCCCC1	> 100 µM (inactive)	> 100 µM (inactive)	9.73 µM (inactive)	–	19.7 µM (inactive)	> 64.7 µM (inactive)	5.18 µM (inactive)	–	–	1.23 µM (inactive)	3.74 µM (inactive)	25.1 µM (inactive)	–	6.52 µM (inactive)	> 100 µM (inactive)	4.36 µM (inactive)	29.7 µM (inactive)	> 100 µM (inactive)	> 100 µM (inactive)	–
COc1ccc(/C=C(\NC(=O)c2ccccc2)c2nc3ccccc3[nH]2)cc1OC	> 100 µM (inactive)	> 100 µM (inactive)	> 100 µM (inactive)	–	> 100 µM (inactive)	> 100 µM (inactive)	> 100 µM (inactive)	–	–	> 100 µM (inactive)	> 100 µM (inactive)	> 100 µM (inactive)	–	> 100 µM (inactive)	> 100 µM (inactive)	> 100 µM (inactive)	> 100 µM (inactive)	99.3 µM (inactive)	> 100 µM (inactive)	–
O=C1c2ccccc2C(=O)N1CC#CCO	> 100 µM (inactive)	> 100 µM (inactive)	> 100 µM (inactive)	–	> 100 µM (inactive)	> 100 µM (inactive)	> 100 µM (inactive)	–	–	> 100 µM (inactive)	> 100 µM (inactive)	> 100 µM (inactive)	–	> 100 µM (inactive)	> 100 µM (inactive)	> 100 µM (inactive)	> 100 µM (inactive)	> 100 µM (inactive)	> 100 µM (inactive)	–
NC1CC(=O)c2c(Br)csc21 (configuration not stated)	78 µM (inactive)	> 100 µM (inactive)	52 µM (inactive)	> 100 µM (inactive)	50.1 µM (inactive)	32.1 µM (inactive)	> 100 µM (inactive)	> 100 µM (inactive)	21.2 µM (inactive)	–	50.6 µM (inactive)	42.9 µM (inactive)	39.3 µM (inactive)	54.7 µM (inactive)	41 µM (inactive)	46.6 µM (inactive)	30.2 µM (inactive)	33 µM (inactive)	–	–
CC12CC(=O)C3C(C(=O)C1)C32C (configuration not stated)	> 100 µM (inactive)	> 100 µM (inactive)	> 100 µM (inactive)	> 100 µM (inactive)	> 100 µM (inactive)	0.488 µM (active)	> 100 µM (inactive)	> 100 µM (inactive)	> 100 µM (inactive)	> 100 µM (inactive)	> 100 µM (inactive)	> 100 µM (inactive)	> 100 µM (inactive)	> 100 µM (inactive)	> 100 µM (inactive)	> 100 µM (inactive)	> 100 µM (inactive)	> 100 µM (inactive)	> 100 µM (inactive)	–
O=c1[nH]nc(NCCc2ccccc2)c2nnn(Cc3ccccc3)c12	–	> 100 µM (inactive)	> 100 µM (inactive)	> 100 µM (inactive)	> 100 µM (inactive)	> 100 µM (inactive)	> 100 µM (inactive)	> 100 µM (inactive)	> 100 µM (inactive)	–	> 100 µM (inactive)	> 100 µM (inactive)	> 100 µM (inactive)	> 100 µM (inactive)	> 100 µM (inactive)	> 100 µM (inactive)	–	> 100 µM (inactive)	> 100 µM (inactive)	–
COc1ccc(Nc2nc3ccc(C(F)(F)F)cc3nc2-c2ccccc2)cc1OC	21.3 µM (inactive)	39.5 µM (inactive)	28.6 µM (inactive)	–	31.4 µM (inactive)	21.5 µM (inactive)	55.5 µM (inactive)	–	–	24.7 µM (inactive)	54.7 µM (inactive)	58.6 µM (inactive)	–	23 µM (inactive)	57.5 µM (inactive)	21.4 µM (inactive)	68.4 µM (inactive)	15.5 µM (inactive)	> 100 µM (inactive)	–
CC(C)c1ccc2c(c1)[C@@]1(C)CC[C@H](C)C(C)(C)C1CC2 (some centres not stated)	17.7 µM (inactive)	17.4 µM (inactive)	18.6 µM (inactive)	25.7 µM (inactive)	32.2 µM (inactive)	18 µM (inactive)	18.9 µM (inactive)	19.5 µM (inactive)	16.9 µM (inactive)	27.4 µM (inactive)	25.4 µM (inactive)	18.6 µM (inactive)	–	17.5 µM (inactive)	26.4 µM (inactive)	27.5 µM (inactive)	47.8 µM (inactive)	37.9 µM (inactive)	15.9 µM (inactive)	24 µM (inactive)
O=C(Nc1ccccc1)N1CCN(C(=O)Nc2ccccc2)C1=S	0.0652 µM (active)	> 100 µM (inactive)	8.57 µM (inactive)	> 100 µM (inactive)	> 100 µM (inactive)	> 100 µM (inactive)	56.4 µM (inactive)	> 100 µM (inactive)	> 100 µM (inactive)	90.2 µM (inactive)	> 100 µM (inactive)	34.6 µM (inactive)	–	19.9 µM (inactive)	> 100 µM (inactive)	> 100 µM (inactive)	> 100 µM (inactive)	23.7 µM (inactive)	55.7 µM (inactive)	35.9 µM (inactive)
O=C(O)C(/C=C/c1ccccc1)c1ccccc1 (configuration not stated)	> 100 µM (inactive)	> 100 µM (inactive)	> 100 µM (inactive)	> 100 µM (inactive)	84.3 µM (inactive)	–	> 100 µM (inactive)	> 100 µM (inactive)	–	69.7 µM (inactive)	> 100 µM (inactive)	> 100 µM (inactive)	> 100 µM (inactive)	> 100 µM (inactive)	> 100 µM (inactive)	5.11 µM (inactive)	> 100 µM (inactive)	> 100 µM (inactive)	–	> 100 µM (inactive)
CC[C@H](C)N(CCN)C(=O)c1cc2ccccc2c(-c2ccccc2Cl)n1	4.07 µM (inactive)	4.41 µM (inactive)	14.9 µM (inactive)	–	3.05 µM (inactive)	14.9 µM (inactive)	17.8 µM (inactive)	–	–	17.5 µM (inactive)	16.6 µM (inactive)	14.2 µM (inactive)	–	6.55 µM (inactive)	18.8 µM (inactive)	10.8 µM (inactive)	14.9 µM (inactive)	12.7 µM (inactive)	14.6 µM (inactive)	–
CC(O[Si](c1ccccc1)(c1ccccc1)C(C)(C)C)[C@H](NC(=O)OC(C)(C)C)C(=O)O (some centres not stated)	82.6 µM (inactive)	30.4 µM (inactive)	30.8 µM (inactive)	> 10 µM (inactive)	46.6 µM (inactive)	35.3 µM (inactive)	38.3 µM (inactive)	–	–	–	–	42 µM (inactive)	26.6 µM (inactive)	35 µM (inactive)	–	28.2 µM (inactive)	29.4 µM (inactive)	33.9 µM (inactive)	26.4 µM (inactive)	57.1 µM (inactive)
CON(C)C(=O)C(C)N(Cc1ccccc1)Cc1ccccc1 (configuration not stated)	> 100 µM (inactive)	57 µM (inactive)	74.8 µM (inactive)	> 100 µM (inactive)	40.5 µM (inactive)	> 100 µM (inactive)	68.7 µM (inactive)	–	88.9 µM (inactive)	–	88.3 µM (inactive)	> 100 µM (inactive)	19.1 µM (inactive)	> 100 µM (inactive)	–	69 µM (inactive)	> 100 µM (inactive)	38.5 µM (inactive)	–	50 µM (inactive)
